According to patent US9328331B2, “Compositions and methods for promoting beta cell maturity” (Joslin Diabetes Center, Inc., priority 2009, dated 2016):

Key:
pancreatic acinar cells = conditions: Ledda-Columbano et al. 2005; cited from earlier work
P7 dispersed islets = test: Glucose-stimulated insulin secretion by static incubation, insulin ELISA; format: cell-based, rat; conditions: 10^−11 M T3 for four days, FIG. 6B
Protocol: RHPA allows the evaluation of secretion from single beta cells (see, e.g., Bosco et al., Am. J. Physiol., 268:C611-C618, 1995; Aguayo-Mazzucato et al., PLoS ONE, 1:e35, 2006). Briefly, insulin secreted during incubation with glucose binds to anti-insulin antibody and complement and lyses RBCs forming hemolytic immunoplaques around secreting cells. Accordingly, the area of the hemolytic plaque is proportional to the amount of insulin secreted by that individual cell. Glucose-stimulated insulin secretion (GSIS) is reflected by the secretion index: the product of the percentage of secreting cells and the mean area of immunoplaques. RHPA is a very sensitive assay in which the proportion of cells secreting and the robustness of their secretion can be measured. […] Insulin secretion was measured in static conditions by sequential incubation in 2.6 mM and 16.8 mM glucose in Krebs-Ringer bicarbonate buffer (KRB, 16 mM HEPES and 0.1% BSA, pH 7.4) as previously described (Schuppin et al., In Vitro Cell Dev Biol Anim 29A:339-344 (1993); Salomon et al., Exp Cell Res 162:507-520 (1986)). […]
Similar results were found in static incubation experiments were performed with P7 dispersed islets cultured in the presence (or absence) of 10^−11 M T3 for four days. mRNA levels for MafA and Ins2 were evaluated using real-time PCR. […]

[1] = in vivo administration, rats, Hartoft-Nielson et al. 2009; cited from earlier work
neonatal islets [2] = test: Quantitative PCR of MafA, insulin and other gene transcription in dispersed neonatal islets cultured with glucose and T3; format: cell-based, rat; conditions: for insulin mRNA / MafA mRNA: 4 days
Protocol: To analyze the role of thyroid hormone during postnatal development of the endocrine pancreas, dispersed P7 islets were cultured with the two changing physiological stimuli identified so far glucose (11 mM and 20 mM) and tri-iodothyronine (T3 at 10^−11 M in charcoal-stripped fetal bovine serum (CS-FBS)), and after 4 days MafA and insulin transcription were assessed.
To further explore this idea, dispersed P8 islets were cultured with two changing physiological stimuli identified so far glucose (11 mM and 20 mM) and tri-iodothyronine (T3) at a concentration of 10^−11 M (T-11; gray bars) or with […] T3 (T-9) in charcoal-stripped fetal bovine serum (CS-FBS); after 4 days transcription levels of MafA and the MafA targets Ins2, GLP1R, PCSK1, PC, and LDH-A were assessed.
(§1) Similar results were found in static incubation experiments were performed with P7 dispersed islets cultured in the presence (or absence) of 10^−11 M T3 for four days. mRNA levels for MafA and Ins2 were evaluated using real-time PCR. […] To further evaluate insulin secretion in these cells, P8 islets were dispersed and then cultured for 4 days with and without 10^−11 M T3, and a reverse hemolytic plaque assay (RHPA) was used to evaluate insulin secretion from single beta cells. […] FIGS. 8A-8B show beta cell glucose responsiveness in 2.8 or 16.8 mM glucose in control cells (8A) or cells treated with T3 (8B) in one of the three RHPA experiments.

beta cells = conditions: Verga et al. 2006; cited from earlier work
neonatal islets [3] = test: Quantitative PCR of MafA, insulin and other gene transcription in dispersed neonatal islets cultured with glucose and T3; format: cell-based, rat; conditions: P7 islets cultured with glucose and T3 at 0.015 nM in CS-FBS for four days, separately and together, FIG. 5A legend
HPANC-1 = conditions: non-insulin expressing human epithelial cell line HPANC-1, Misiti et al. 2005; cited from earlier work
single beta cells = test: Reverse hemolytic plaque assay (RHPA) of insulin secretion from single beta cells; format: cell-based, rat
Protocol: RHPA allows the evaluation of secretion from single beta cells (see, e.g., Bosco et al., Am. J. Physiol., 268:C611-C618, 1995; Aguayo-Mazzucato et al., PLoS ONE, 1:e35, 2006). Briefly, insulin secreted during incubation with glucose binds to anti-insulin antibody and complement and lyses RBCs forming hemolytic immunoplaques around secreting cells. Accordingly, the area of the hemolytic plaque is proportional to the amount of insulin secreted by that individual cell. Glucose-stimulated insulin secretion (GSIS) is reflected by the secretion index: the product of the percentage of secreting cells and the mean area of immunoplaques. RHPA is a very sensitive assay in which the proportion of cells secreting and the robustness of their secretion can be measured. However it is laborious, therefore classic static insulin secretion studies were also performed with an insulin ELISA for measurement. Insulin secretion was measured in static conditions by sequential incubation in 2.6 mM and 16.8 mM glucose in Krebs-Ringer bicarbonate buffer (KRB, 16 mM HEPES and 0.1% BSA, pH 7.4) as previously described (Schuppin et al., In Vitro Cell Dev Biol Anim 29A:339-344 (1993); Salomon et al., Exp Cell Res 162:507-520 (1986)). Supernatants and cells were frozen until assayed for Insulin content.
as §1

[4] = P8 islet cells treated with T3 vs control untreated cells, quantitative PCR, FIG. 9
[5] = P8 islets cultured for 4 days with 0.015 nM T3 (T-9)
[6] = dispersed P8 islets, glucose (11 mM and 20 mM) and T3, CS-FBS, FIG. 5C

N[C@@H](Cc1cc(I)c(Oc2ccc(O)c(I)c2)c(I)c1)C(=O)O [T3, L-3,5,3′-triiodothyronine]
proliferation in pancreatic acinar cells (pancreatic acinar cells): promotes increased proliferation | proliferation in pancreatic islet (e.g., beta cells) and ductal cells (pancreatic acinar cells): but not in pancreatic islet (e.g., beta cells) and ductal cells | Glucose-stimulated insulin secretion (P7 dispersed islets): significantly increased | beta cell mass [1]: increased | incidence of type I diabetes [1]: reduced | MafA mRNA levels increase (neonatal islets [2]; P7 dispersed islets, 10^−11 M T3 for four days, real-time PCR, FIG. 6A): about two-fold | transcription of MCT1 (neonatal islets [2]; [4]): significantly increases | transcription of MafA (neonatal islets [2]; [4]): significantly increases | transcription of TRb (neonatal islets [2]; [4]): significantly increases | MafA mRNA increase compared with control cultured islets (neonatal islets [2]; [5]): 2.5 fold | insulin mRNA increase compared with control cultured islets (neonatal islets [2]; [5]): 71% | insulin mRNA (neonatal islets [2]; dispersed P7 islets, glucose (11 mM and 20 mM) and T3 at 10^−11 M in CS-FBS, stimuli separately and together): significantly increased | MafA mRNA (neonatal islets [2]; dispersed P7 islets, glucose (11 mM and 20 mM) and T3 at 10^−11 M in CS-FBS, stimuli separately and together, FIG. 5A): significantly increased | MafA mRNA (neonatal islets [2]; [6]): significantly increased | insulin mRNA (neonatal islets [2]; [6]): significantly increased | apoptosis in beta cells (beta cells): reduces apoptosis | cell proliferation in beta cells (beta cells): promotes cell proliferation | MafA transcription (neonatal islets [3]): increase | differentiation to or towards a glucose responsive insulin secreting cell line (HPANC-1): promote differentiation | insulin secretion in response to 16.8 mM glucose (single beta cells; P7 cells cultured for 4 days with thyroid hormone, one experiment): an increase in insulin secretion | insulin secretion in the presence 16.8 mM glucose (single beta cells; P7 cells treated with T3 compared to untreated control cells, FIGS. 7A and 7B legend): increases insulin secretion | insulin secretion index (single beta cells; dispersed P8 islets cultured for 4 days with 10^−11 M T3, FIG. 7A): marked increase | percentage of insulin secreting cells (single beta cells; dispersed P8 islets cultured for 4 days with 10^−11 M T3, FIG. 7B): marked increase
